Data published in ChEMBL document CHEMBL5113522, “Discovery of CH7057288 as an Orally Bioavailable, Selective, and Potent pan-TRK Inhibitor” (J Med Chem, 2022).

Columns and labels:
[1] = biological target: Tyrosine-protein kinase Lck (Homo sapiens, UniProt P06239); test: Inhibition of LCK (unknown origin)
NIH3T3 = test: Antiproliferative activity against […] NIH3T3 cells expressing MPRIP-NTRK1 assessed as cell growth inhibition incubated for 4 to 7 days by CellTiter-Glo Luminescent Cell Viability Assay; format: functional, cell-based; conditions: Mus musculus
[2] = biological target: High affinity nerve growth factor receptor (Homo sapiens, UniProt P04629); test: Inhibition of TRKA (unknown origin)
CYP3A4 = CYP3A4 (Homo sapiens, UniProt P08684); test: Induction of CYP3A4 in human hepatocytes assessed as fold induction at 1 uM using testosterone as substrate preincubated with replacement of fresh medium containing compound every 24 hrs for 72 hrs followed by substrate addition and measured after 1 hr by LC-MS/MS analysis relative to control; format: ADME, cell-based, Hepatocyte; conditions: probe testosterone, time 73 hrs, read-out: FC
[3] = biological target: Vascular endothelial growth factor receptor 2 (Homo sapiens, UniProt P35968); test: Inhibition of KDR (unknown origin)
Vascular endothelial growth factor receptor 2, sequence (P35968 whole entry): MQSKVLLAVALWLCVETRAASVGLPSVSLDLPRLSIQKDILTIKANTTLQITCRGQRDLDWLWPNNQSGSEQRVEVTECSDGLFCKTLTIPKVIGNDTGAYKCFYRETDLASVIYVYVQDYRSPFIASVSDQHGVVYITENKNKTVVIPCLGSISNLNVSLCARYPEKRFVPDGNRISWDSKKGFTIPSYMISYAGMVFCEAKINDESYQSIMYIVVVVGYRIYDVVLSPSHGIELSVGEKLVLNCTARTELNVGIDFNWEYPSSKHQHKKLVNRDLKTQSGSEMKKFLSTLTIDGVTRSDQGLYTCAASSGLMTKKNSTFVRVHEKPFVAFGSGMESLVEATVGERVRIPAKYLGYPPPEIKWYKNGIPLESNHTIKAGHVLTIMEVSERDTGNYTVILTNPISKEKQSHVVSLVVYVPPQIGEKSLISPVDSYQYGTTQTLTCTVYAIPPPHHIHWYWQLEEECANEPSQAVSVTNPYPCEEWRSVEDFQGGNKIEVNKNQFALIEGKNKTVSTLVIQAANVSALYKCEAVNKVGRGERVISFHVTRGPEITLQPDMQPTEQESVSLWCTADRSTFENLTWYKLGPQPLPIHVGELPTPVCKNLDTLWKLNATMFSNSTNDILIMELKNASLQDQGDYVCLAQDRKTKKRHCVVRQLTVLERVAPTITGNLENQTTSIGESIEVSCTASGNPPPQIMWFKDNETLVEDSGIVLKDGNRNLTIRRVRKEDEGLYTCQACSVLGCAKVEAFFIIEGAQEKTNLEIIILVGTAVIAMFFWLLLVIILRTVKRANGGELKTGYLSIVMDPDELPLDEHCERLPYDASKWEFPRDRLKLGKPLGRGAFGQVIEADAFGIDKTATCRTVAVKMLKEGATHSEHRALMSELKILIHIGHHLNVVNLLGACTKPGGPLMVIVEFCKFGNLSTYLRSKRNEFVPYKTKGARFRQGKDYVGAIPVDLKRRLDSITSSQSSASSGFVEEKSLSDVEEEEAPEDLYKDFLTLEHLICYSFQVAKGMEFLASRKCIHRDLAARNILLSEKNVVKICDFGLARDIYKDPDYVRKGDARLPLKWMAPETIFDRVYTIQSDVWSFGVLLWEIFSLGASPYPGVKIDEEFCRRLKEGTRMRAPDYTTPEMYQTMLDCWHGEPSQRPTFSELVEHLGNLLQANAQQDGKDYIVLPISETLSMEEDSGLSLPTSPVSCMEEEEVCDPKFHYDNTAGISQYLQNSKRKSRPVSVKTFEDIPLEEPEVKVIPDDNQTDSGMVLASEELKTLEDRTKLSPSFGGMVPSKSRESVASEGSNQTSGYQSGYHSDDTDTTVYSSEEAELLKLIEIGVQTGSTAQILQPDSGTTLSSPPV

High affinity nerve growth factor receptor, sequence (P04629 whole entry): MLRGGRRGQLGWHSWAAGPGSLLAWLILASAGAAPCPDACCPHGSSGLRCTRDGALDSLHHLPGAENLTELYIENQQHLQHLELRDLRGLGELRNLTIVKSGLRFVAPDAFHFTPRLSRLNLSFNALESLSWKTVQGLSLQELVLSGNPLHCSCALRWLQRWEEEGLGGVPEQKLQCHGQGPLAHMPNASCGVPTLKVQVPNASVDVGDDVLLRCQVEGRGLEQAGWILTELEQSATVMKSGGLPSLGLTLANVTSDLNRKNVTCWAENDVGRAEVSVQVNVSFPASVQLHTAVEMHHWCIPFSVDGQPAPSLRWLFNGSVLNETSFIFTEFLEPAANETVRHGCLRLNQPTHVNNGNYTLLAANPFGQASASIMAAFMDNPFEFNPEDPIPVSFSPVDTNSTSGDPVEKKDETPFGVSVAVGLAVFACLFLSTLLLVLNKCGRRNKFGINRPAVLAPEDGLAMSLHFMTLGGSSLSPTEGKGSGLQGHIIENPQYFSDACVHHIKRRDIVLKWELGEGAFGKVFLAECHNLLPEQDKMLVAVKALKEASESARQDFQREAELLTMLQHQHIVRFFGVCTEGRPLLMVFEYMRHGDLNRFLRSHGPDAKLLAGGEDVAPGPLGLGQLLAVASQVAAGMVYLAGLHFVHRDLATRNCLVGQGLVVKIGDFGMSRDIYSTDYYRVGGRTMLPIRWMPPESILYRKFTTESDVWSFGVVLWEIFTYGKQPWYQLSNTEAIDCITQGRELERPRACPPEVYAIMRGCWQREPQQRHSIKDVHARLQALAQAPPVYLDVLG
CYP3A4, sequence (P08684 whole entry): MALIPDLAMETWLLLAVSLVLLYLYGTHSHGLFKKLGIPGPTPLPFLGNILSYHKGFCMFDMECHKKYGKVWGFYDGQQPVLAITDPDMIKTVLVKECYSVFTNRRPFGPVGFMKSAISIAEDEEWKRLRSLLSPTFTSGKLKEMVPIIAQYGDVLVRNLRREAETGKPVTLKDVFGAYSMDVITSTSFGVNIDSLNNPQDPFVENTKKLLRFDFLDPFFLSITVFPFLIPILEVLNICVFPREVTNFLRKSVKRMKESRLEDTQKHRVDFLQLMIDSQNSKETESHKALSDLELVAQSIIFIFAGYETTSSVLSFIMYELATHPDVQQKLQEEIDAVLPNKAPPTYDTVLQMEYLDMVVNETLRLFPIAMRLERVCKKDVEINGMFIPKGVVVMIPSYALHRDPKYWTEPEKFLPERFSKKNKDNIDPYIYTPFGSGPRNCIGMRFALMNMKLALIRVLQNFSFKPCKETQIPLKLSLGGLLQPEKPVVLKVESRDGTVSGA
Tyrosine-protein kinase Lck, sequence (P06239 whole entry): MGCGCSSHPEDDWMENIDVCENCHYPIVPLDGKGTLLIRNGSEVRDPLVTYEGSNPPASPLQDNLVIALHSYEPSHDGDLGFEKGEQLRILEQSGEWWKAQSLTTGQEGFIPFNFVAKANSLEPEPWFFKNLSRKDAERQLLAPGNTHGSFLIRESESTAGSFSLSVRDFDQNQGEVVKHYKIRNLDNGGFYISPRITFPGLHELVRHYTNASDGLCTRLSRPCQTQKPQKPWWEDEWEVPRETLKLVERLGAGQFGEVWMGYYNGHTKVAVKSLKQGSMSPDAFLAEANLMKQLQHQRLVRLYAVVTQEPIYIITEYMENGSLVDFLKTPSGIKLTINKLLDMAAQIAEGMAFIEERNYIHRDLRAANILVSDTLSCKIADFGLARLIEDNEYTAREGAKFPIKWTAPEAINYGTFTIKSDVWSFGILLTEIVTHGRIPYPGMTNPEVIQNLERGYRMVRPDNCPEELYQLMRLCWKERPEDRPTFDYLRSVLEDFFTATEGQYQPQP

IC50 [1]	IC50 [2]	fold induction at 1 h, 1 µM (CYP3A4)	IC50 [3]	Compound	IC50 (NIH3T3)
86 nM	3 nM	2.6	430 nM	CC1(C)c2cc(N3CC4(COC4)C3)ccc2C(=O)c2c1oc1cc(C#Cc3cc(OCC4CC4)ccn3)ccc21	69 nM
96 nM	2.8 nM	6.1	960 nM	CC1(C)c2cc(OCCN3CCCOCC3)ccc2C(=O)c2c1oc1cc(C#Cc3cc(OCC4CC4)ccn3)ccc21	80 nM
96 nM	1.2 nM	0.9	> 1000 nM	CCCc1cc(C(=O)NC(C)(C)C)cc(C#Cc2ccc3c4c(oc3c2)C(C)(C)c2cc(NS(C)(=O)=O)ccc2C4=O)n1	12 nM
330 nM	3.3 nM	6.3	> 1000 nM	CC1(C)c2cc(OCCN3CCOCC3)ccc2C(=O)c2c1oc1cc(C#Cc3cc(OCC(F)(F)F)ccn3)ccc21	21 nM
130 nM	0.7 nM	4.7	600 nM	CC(C)(C)NC(=O)c1ccnc(C#Cc2ccc3c4c(oc3c2)C(C)(C)c2cc(NS(C)(=O)=O)ccc2C4=O)c1	14 nM
370 nM	3.3 nM	7.9	960 nM	CC1(C)c2cc(OCCN3CCOCC3)ccc2C(=O)c2c1oc1cc(C#Cc3cc(OCC4(CO)CC4)ccn3)ccc21	184 nM
58 nM	2.8 nM	11	> 1000 nM	CC(C)(C)NC(=O)c1cc(C#N)nc(C#Cc2ccc3c4c(oc3c2)C(C)(C)c2cc(NS(C)(=O)=O)ccc2C4=O)c1	67 nM
760 nM	3.8 nM	2.6	> 1000 nM	Cc1cnc(C#Cc2ccc3c4c(oc3c2)C(C)(C)c2cc(NS(C)(=O)=O)ccc2C4=O)cc1C(=O)NC(C)(C)C	65 nM
320 nM	0.7 nM	2.8	> 1000 nM	CCc1cc(C(=O)NC(C)(C)C)cc(C#Cc2ccc3c4c(oc3c2)C(C)(C)c2cc(NS(C)(=O)=O)ccc2C4=O)n1	12 nM
130 nM	2.6 nM	2.5	> 1000 nM	CC(C)(C)NC(=O)c1cc(C#Cc2ccc3c4c(oc3c2)C(C)(C)c2cc(NS(C)(=O)=O)ccc2C4=O)nc(C(F)(F)F)c1	55 nM
170 nM	18 nM	6.7	> 1000 nM	CC1(C)c2cc(OCCN3C4CCC3COC4)ccc2C(=O)c2c1oc1cc(C#Cc3cc(OCC4CC4)ccn3)ccc21	180 nM
180 nM	1.3 nM	12	> 1000 nM	CC1(C)c2cc(OCCN3CCOCC3)ccc2C(=O)c2c1oc1cc(C#Cc3cc(C(=O)NC4CC4)ccn3)ccc21	30 nM
140 nM	13 nM	1.9	> 1000 nM	CC1(C)NC(=O)N(CCOc2ccc3c(c2)C(C)(C)c2oc4cc(C#Cc5cc(OCC6CC6)ccn5)ccc4c2C3=O)C1=O	150 nM
50 nM	1.4 nM	4.2	290 nM	CC1(C)c2cc(N3CCNC(=O)C3)ccc2C(=O)c2c1oc1cc(C#Cc3cc(OCC4CC4)ccn3)ccc21	16 nM
220 nM	2 nM	6.4	490 nM	CC1(C)c2cc(OCCN3CCOCC3)ccc2C(=O)c2c1oc1cc(C#Cc3cc(OCCC4CC4)ccn3)ccc21	530 nM
53 nM	2.7 nM	3.1	171 nM	CC1(C)c2cc(OCCN3CCOCC3)ccc2C(=O)c2c1oc1cc(C#Cc3cc(OCC4CCC4)ccn3)ccc21	210 nM
160 nM	2 nM	6.1	420 nM	CC1(COc2ccnc(C#Cc3ccc4c5c(oc4c3)C(C)(C)c3cc(OCCN4CCOCC4)ccc3C5=O)c2)CC1	73 nM
22 nM	4 nM	1.4	500 nM	CC1(C)c2cc(OCCN3CC4(COC4)C3)ccc2C(=O)c2c1oc1cc(C#Cc3cc(OCC4CC4)ccn3)ccc21	46 nM
180 nM	2.2 nM	3	> 1000 nM	CC(C)(C)NC(=O)c1cc(Cl)nc(C#Cc2ccc3c4c(oc3c2)C(C)(C)c2cc(NS(C)(=O)=O)ccc2C4=O)c1	48 nM
190 nM	3.4 nM	5.4	690 nM	CC1(C)c2cc(N3CCOCC3)ccc2C(=O)c2c1oc1cc(C#Cc3cc(OCC4CC4)ccn3)ccc21	53 nM
223 nM	3.9 nM	1.2	> 1000 nM	CC1(C)c2cc(NS(C)(=O)=O)ccc2C(=O)c2c1oc1cc(C#Cc3cc(OCC4CC4)ccn3)ccc21	75 nM
68 nM	2.1 nM	5.2	413 nM	CC1(C)c2cc(OCCN3CCNC(=O)C3)ccc2C(=O)c2c1oc1cc(C#Cc3cc(OCC4CC4)ccn3)ccc21	19 nM
145 nM	2.4 nM	2.8	> 1000 nM	CC1(C)c2cc(NS(C)(=O)=O)ccc2C(=O)c2c1oc1cc(C#Cc3cc(C(=O)NC4CC4)ccn3)ccc21	83 nM
820 nM	15 nM	6.3	> 1000 nM	COCCOc1ccnc(C#Cc2ccc3c4c(oc3c2)C(C)(C)c2cc(OCCN3CCOCC3)ccc2C4=O)c1	130 nM
300 nM	3.8 nM	4.1	> 1000 nM	Cc1c(C(=O)NC(C)(C)C)ccnc1C#Cc1ccc2c3c(oc2c1)C(C)(C)c1cc(NS(C)(=O)=O)ccc1C3=O	45 nM
	160 nM			CC1(C)c2cc(OCCN3CCOCC3)ccc2C(=O)c2c1oc1cc(C#Cc3cncc(OCC4CC4)c3)ccc21	
159 nM	2.2 nM	3.4	997 nM	CC1(C)c2cc(NS(C)(=O)=O)ccc2C(=O)c2c1oc1cc(C#Cc3cc(OCC(F)(F)F)ccn3)ccc21	67 nM
